Measured values taken from the NIST ThermoML archive (doi:10.1016/j.jct.2018.12.039).
Numbers after ± are expanded uncertainties.

Assay: xn = mol fraction of the nth substance listed
Conditions: 100 kPa, Liquid; for speed of sound: Frequency=2 MHz, Linear variable-path acoustic interferometer; for mass density: Vibrating tube method

**Q.** Which speed of sound (303.15 K, x2 = 0) does the source give for `Cc1cccc(O)c1` [3-methylphenol] + CCO here?
**A.** Its speed of sound is 1466.1 ± 2.5 m/s.

**Q.** And the speed of sound (303.15 K, x2 = 0.14)?
**A.** The speed of sound was 1426.7 ± 2.5 m/s.

**Q.** And the speed of sound (303.15 K, x2 = 0.2637)?
**A.** The speed of sound was 1384.7 ± 2.5 m/s.

**Q.** What about the speed of sound (303.15 K, x2 = 0.3738) of the same compound?
**A.** Its speed of sound is 1344.9 ± 2.4 m/s.

**Q.** What about the speed of sound (303.15 K, x2 = 0.4724) of the same compound?
**A.** Its speed of sound is 1308.5 ± 2.4 m/s.

**Q.** And the speed of sound (303.15 K, x2 = 0.5612)?
**A.** Its speed of sound is 1275.8 ± 2.4 m/s.

**Q.** And the speed of sound (303.15 K, x2 = 0.6417)?
**A.** Its speed of sound is 1246.6 ± 2.4 m/s.

**Q.** And the speed of sound (303.15 K, x2 = 0.7149)?
**A.** Its speed of sound is 1220.5 ± 2.4 m/s.

**Q.** And the speed of sound (303.15 K, x2 = 0.7817)?
**A.** The speed of sound was 1197.2 ± 2.4 m/s.

**Q.** And the speed of sound (303.15 K, x2 = 0.8431)?
**A.** Its speed of sound is 1176.3 ± 2.4 m/s.

**Q.** What about the speed of sound (303.15 K, x2 = 0.8995) of the same compound?
**A.** Its speed of sound is 1157.8 ± 2.4 m/s.

**Q.** And the speed of sound (303.15 K, x2 = 0.9517)?
**A.** The speed of sound was 1141.4 ± 2.4 m/s.

**Q.** And the mass density (303.15 K, x2 = 0)?
**A.** The mass density was 1025.71 ± 1.2 kg/m3.

**Q.** What about the mass density (303.15 K, x2 = 0.14) of the same compound?
**A.** The mass density was 1005.48 ± 1.2 kg/m3.

**Q.** And the mass density (303.15 K, x2 = 0.2637)?
**A.** The mass density was 985.23 ± 1.2 kg/m3.

**Q.** What about the mass density (303.15 K, x2 = 0.3738) of the same compound?
**A.** Its mass density is 964.94 ± 1.2 kg/m3.

**Q.** And the mass density (303.15 K, x2 = 0.4724)?
**A.** Its mass density is 944.63 ± 1.2 kg/m3.

**Q.** And the mass density (303.15 K, x2 = 0.5612)?
**A.** The mass density was 924.32 ± 1.2 kg/m3.

**Q.** And the mass density (303.15 K, x2 = 0.6417)?
**A.** Its mass density is 903.96 ± 1.2 kg/m3.

**Q.** And the mass density (303.15 K, x2 = 0.7149)?
**A.** Its mass density is 883.56 ± 1.2 kg/m3.

**Q.** And the mass density (303.15 K, x2 = 0.7817)?
**A.** The mass density was 863.15 ± 1.2 kg/m3.

**Q.** What about the mass density (303.15 K, x2 = 0.8431) of the same compound?
**A.** Its mass density is 842.67 ± 1.2 kg/m3.

**Q.** What about the mass density (303.15 K, x2 = 0.8995) of the same compound?
**A.** Its mass density is 822.2 ± 1.2 kg/m3.

**Q.** What about the mass density (303.15 K, x2 = 0.9517) of the same compound?
**A.** Its mass density is 801.66 ± 1.2 kg/m3.

**Q.** What about the mass density (308.15 K, x2 = 0) of the same compound?
**A.** Its mass density is 1021.7 ± 1.2 kg/m3.

**Q.** What about the mass density (308.15 K, x2 = 0.14) of the same compound?
**A.** The mass density was 1001.45 ± 1.2 kg/m3.

**Q.** And the mass density (308.15 K, x2 = 0.2637)?
**A.** The mass density was 981.17 ± 1.2 kg/m3.

**Q.** And the mass density (308.15 K, x2 = 0.3738)?
**A.** The mass density was 960.82 ± 1.2 kg/m3.

**Q.** And the mass density (308.15 K, x2 = 0.4724)?
**A.** The mass density was 940.47 ± 1.2 kg/m3.

**Q.** What about the mass density (308.15 K, x2 = 0.5612) of the same compound?
**A.** The mass density was 920.08 ± 1.2 kg/m3.

**Q.** What about the mass density (308.15 K, x2 = 0.6417) of the same compound?
**A.** The mass density was 899.68 ± 1.2 kg/m3.

**Q.** What about the mass density (308.15 K, x2 = 0.7149) of the same compound?
**A.** Its mass density is 879.25 ± 1.2 kg/m3.

**Q.** What about the mass density (308.15 K, x2 = 0.7817) of the same compound?
**A.** Its mass density is 858.83 ± 1.2 kg/m3.

**Q.** And the mass density (308.15 K, x2 = 0.8431)?
**A.** The mass density was 838.32 ± 1.2 kg/m3.

**Q.** What about the mass density (308.15 K, x2 = 0.8995) of the same compound?
**A.** The mass density was 817.81 ± 1.2 kg/m3.

**Q.** And the mass density (308.15 K, x2 = 0.9517)?
**A.** The mass density was 797.22 ± 1.2 kg/m3.

**Q.** What about the speed of sound (313.15 K, x2 = 0) of the same compound?
**A.** Its speed of sound is 1436.1 ± 2.5 m/s.

**Q.** What about the speed of sound (313.15 K, x2 = 0.14) of the same compound?
**A.** The speed of sound was 1398.2 ± 2.5 m/s.

**Q.** What about the speed of sound (313.15 K, x2 = 0.2637) of the same compound?
**A.** The speed of sound was 1355 ± 2.5 m/s.

**Q.** What about the speed of sound (313.15 K, x2 = 0.3738) of the same compound?
**A.** The speed of sound was 1313.8 ± 2.4 m/s.

**Q.** What about the speed of sound (313.15 K, x2 = 0.4724) of the same compound?
**A.** Its speed of sound is 1276.5 ± 2.4 m/s.

**Q.** What about the speed of sound (313.15 K, x2 = 0.5612) of the same compound?
**A.** Its speed of sound is 1243.4 ± 2.4 m/s.

**Q.** What about the speed of sound (313.15 K, x2 = 0.6417) of the same compound?
**A.** The speed of sound was 1214 ± 2.4 m/s.

**Q.** What about the speed of sound (313.15 K, x2 = 0.7149) of the same compound?
**A.** Its speed of sound is 1188 ± 2.4 m/s.

**Q.** And the speed of sound (313.15 K, x2 = 0.7817)?
**A.** The speed of sound was 1164.7 ± 2.4 m/s.

**Q.** What about the speed of sound (313.15 K, x2 = 0.8431) of the same compound?
**A.** Its speed of sound is 1143.9 ± 2.4 m/s.

**Q.** And the speed of sound (313.15 K, x2 = 0.8995)?
**A.** Its speed of sound is 1125.3 ± 2.4 m/s.

**Q.** What about the speed of sound (313.15 K, x2 = 0.9517) of the same compound?
**A.** The speed of sound was 1108.7 ± 2.4 m/s.

**Q.** And the mass density (313.15 K, x2 = 0)?
**A.** The mass density was 1017.69 ± 1.2 kg/m3.

**Q.** And the mass density (313.15 K, x2 = 0.14)?
**A.** Its mass density is 997.42 ± 1.2 kg/m3.

**Q.** What about the mass density (313.15 K, x2 = 0.2637) of the same compound?
**A.** The mass density was 977.1 ± 1.2 kg/m3.

**Q.** What about the mass density (313.15 K, x2 = 0.3738) of the same compound?
**A.** Its mass density is 956.72 ± 1.2 kg/m3.

**Q.** What about the mass density (313.15 K, x2 = 0.4724) of the same compound?
**A.** The mass density was 936.35 ± 1.2 kg/m3.

**Q.** What about the mass density (313.15 K, x2 = 0.5612) of the same compound?
**A.** The mass density was 915.95 ± 1.2 kg/m3.

**Q.** What about the mass density (313.15 K, x2 = 0.6417) of the same compound?
**A.** Its mass density is 895.51 ± 1.2 kg/m3.

**Q.** And the mass density (313.15 K, x2 = 0.7149)?
**A.** The mass density was 875.06 ± 1.2 kg/m3.

**Q.** And the mass density (313.15 K, x2 = 0.7817)?
**A.** The mass density was 854.61 ± 1.2 kg/m3.

**Q.** And the mass density (313.15 K, x2 = 0.8431)?
**A.** Its mass density is 834.07 ± 1.2 kg/m3.

**Q.** And the mass density (313.15 K, x2 = 0.8995)?
**A.** Its mass density is 813.53 ± 1.2 kg/m3.

**Q.** What about the mass density (313.15 K, x2 = 0.9517) of the same compound?
**A.** The mass density was 792.9 ± 1.2 kg/m3.

**Q.** And the mass density (318.15 K, x2 = 0)?
**A.** The mass density was 1013.65 ± 1.2 kg/m3.

**Q.** And the mass density (318.15 K, x2 = 0.14)?
**A.** The mass density was 993.36 ± 1.2 kg/m3.

**Q.** What about the mass density (318.15 K, x2 = 0.2637) of the same compound?
**A.** Its mass density is 972.97 ± 1.2 kg/m3.

**Q.** What about the mass density (318.15 K, x2 = 0.3738) of the same compound?
**A.** Its mass density is 952.53 ± 1.2 kg/m3.

**Q.** And the mass density (318.15 K, x2 = 0.4724)?
**A.** Its mass density is 932.08 ± 1.2 kg/m3.

**Q.** What about the mass density (318.15 K, x2 = 0.5612) of the same compound?
**A.** Its mass density is 911.64 ± 1.2 kg/m3.

**Q.** And the mass density (318.15 K, x2 = 0.6417)?
**A.** Its mass density is 891.18 ± 1.2 kg/m3.

**Q.** What about the mass density (318.15 K, x2 = 0.7149) of the same compound?
**A.** The mass density was 870.68 ± 1.2 kg/m3.

**Q.** And the mass density (318.15 K, x2 = 0.7817)?
**A.** The mass density was 850.21 ± 1.2 kg/m3.

**Q.** What about the mass density (318.15 K, x2 = 0.8431) of the same compound?
**A.** The mass density was 829.62 ± 1.2 kg/m3.

**Q.** And the mass density (318.15 K, x2 = 0.8995)?
**A.** Its mass density is 809.06 ± 1.2 kg/m3.

**Q.** And the mass density (318.15 K, x2 = 0.9517)?
**A.** Its mass density is 788.34 ± 1.2 kg/m3.
